According to the supplement of paper PMC13207355:

Legend:
Settings in all cases: exposure time: 72 h
E13 [1] = patient-derived glioblastoma stem cells of classical subtype; assay: surviving fraction (nuclei count normalised to DMSO); higher = more cells surviving (less toxic)
E21 [2] = patient-derived glioblastoma stem cells of mesenchymal subtype; assay: as above
E28 [3] = patient-derived glioblastoma stem cells of classical subtype; assay: as above
E31 [4] = patient-derived glioblastoma stem cells of proneural subtype; assay: as above
E34 [5] = patient-derived glioblastoma stem cells of proneural subtype; assay: as above
E57 [6] = patient-derived glioblastoma stem cells of mesenchymal subtype; assay: as above
FT3469 [7] = normal neural stem cell line; assay: as above
E13 [8] = assay: phenotypic distance (Euclidean, principal components) from DMSO controls (arbitrary units); higher = stronger morphological change
E21 [9] = assay: as above
E28 [10] = assay: as above
E31 [11] = assay: as above
E34 [12] = assay: as above
E57 [13] = assay: as above
FT3469 [14] = assay: as above
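For phenotypic distance (Euclidean, principal components) from DMSO controls in this document: cell Painting imaging in 384-well plates, CellProfiler features reduced to at least 20 principal components, Euclidean distance versus same-plate DMSO vehicle wells (0.1% v/v), median over six images per well.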
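For surviving fraction (nuclei count normalised to DMSO) in this document: nuclei counted by high-content imaging of Hoechst-stained cells in laminin-coated 384-well plates, relative to 0.1% DMSO vehicle wells, with staurosporine as cell-death control.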

CCOC(=O)OC(C)OC1=C(C(=O)Nc2ccccn2)N(C)S(=O)(=O)c2ccccc21 (stereo not drawn) [Ampiroxicam]
Settings | phenotypic distance | surviving fraction
E13 [1], 4.1 nM | – | 0.882
E13 [1], 12.3 nM | – | 0.885
E13 [1], 37 nM | – | 1.02
E13 [1], 111.1 nM | – | 0.926
E13 [1], 333.3 nM | – | 1.08
E13 [1], 1000 nM | – | 0.895
E13 [1], 3000 nM | – | 0.916
E13 [8], 4.1 nM | 0.946 | –
E13 [8], 12.3 nM | 0.661 | –
E13 [8], 37 nM | 0.814 | –
E13 [8], 111.1 nM | 0.688 | –
E13 [8], 333.3 nM | 0.952 | –
E13 [8], 1000 nM | 0.72 | –
E13 [8], 3000 nM | 0.529 | –
E21 [2], 4.1 nM | – | 0.957
E21 [2], 12.3 nM | – | 0.928
E21 [2], 37 nM | – | 0.953
E21 [2], 111.1 nM | – | 0.847
E21 [2], 333.3 nM | – | 1.09
E21 [2], 1000 nM | – | 0.883
E21 [2], 3000 nM | – | 1.01
E21 [9], 4.1 nM | 0.574 | –
E21 [9], 12.3 nM | 0.804 | –
E21 [9], 37 nM | 0.922 | –
E21 [9], 111.1 nM | 0.659 | –
E21 [9], 333.3 nM | 0.834 | –
E21 [9], 1000 nM | 0.819 | –
E21 [9], 3000 nM | 0.71 | –
E28 [3], 4.1 nM | – | 0.815
E28 [3], 12.3 nM | – | 1.1
E28 [3], 37 nM | – | 0.896
E28 [3], 111.1 nM | – | 0.884
E28 [3], 333.3 nM | – | 0.939
E28 [3], 1000 nM | – | 1.08
E28 [3], 3000 nM | – | 0.871
E28 [10], 4.1 nM | 1.28 | –
E28 [10], 12.3 nM | 0.987 | –
E28 [10], 37 nM | 0.538 | –
E28 [10], 111.1 nM | 0.744 | –
E28 [10], 333.3 nM | 0.444 | –
E28 [10], 1000 nM | 0.516 | –
E28 [10], 3000 nM | 0.705 | –
E31 [4], 4.1 nM | – | 0.83
E31 [4], 12.3 nM | – | 0.849
E31 [4], 37 nM | – | 0.967
E31 [4], 111.1 nM | – | 1
E31 [4], 333.3 nM | – | 0.856
E31 [4], 1000 nM | – | 1.02
E31 [4], 3000 nM | – | 1.08
E31 [11], 4.1 nM | 0.739 | –
E31 [11], 12.3 nM | 0.998 | –
E31 [11], 37 nM | 0.78 | –
E31 [11], 111.1 nM | 0.734 | –
E31 [11], 333.3 nM | 0.689 | –
E31 [11], 1000 nM | 0.71 | –
E31 [11], 3000 nM | 0.801 | –
E34 [5], 4.1 nM | – | 1.14
E34 [5], 12.3 nM | – | 0.946
E34 [5], 37 nM | – | 0.986
E34 [5], 111.1 nM | – | 1.1
E34 [5], 333.3 nM | – | 1.01
E34 [5], 1000 nM | – | 0.932
E34 [5], 3000 nM | – | 0.984
E34 [12], 4.1 nM | 0.789 | –
E34 [12], 12.3 nM | 0.855 | –
E34 [12], 37 nM | 0.505 | –
E34 [12], 111.1 nM | 0.762 | –
E34 [12], 333.3 nM | 0.521 | –
E34 [12], 1000 nM | 0.542 | –
E34 [12], 3000 nM | 0.73 | –
E57 [6], 4.1 nM | – | 0.955
E57 [6], 12.3 nM | – | 1.02
E57 [6], 37 nM | – | 0.962
E57 [6], 111.1 nM | – | 1.02
E57 [6], 333.3 nM | – | 0.943
E57 [6], 1000 nM | – | 1.06
E57 [6], 3000 nM | – | 1.08
E57 [13], 4.1 nM | 0.796 | –
E57 [13], 12.3 nM | 0.83 | –
E57 [13], 37 nM | 0.552 | –
E57 [13], 111.1 nM | 0.54 | –
E57 [13], 333.3 nM | 0.507 | –
E57 [13], 1000 nM | 1.03 | –
E57 [13], 3000 nM | 0.908 | –
FT3469 [7], 4.1 nM | – | 0.768
FT3469 [7], 12.3 nM | – | 1.05
FT3469 [7], 37 nM | – | 1.02
FT3469 [7], 111.1 nM | – | 1.05
FT3469 [7], 333.3 nM | – | 1.04
FT3469 [7], 1000 nM | – | 1.08
FT3469 [7], 3000 nM | – | 0.95
FT3469 [14], 4.1 nM | 0.638 | –
FT3469 [14], 12.3 nM | 0.959 | –
FT3469 [14], 37 nM | 0.379 | –
FT3469 [14], 111.1 nM | 1.16 | –
FT3469 [14], 333.3 nM | 0.73 | –
FT3469 [14], 1000 nM | 1.03 | –
FT3469 [14], 3000 nM | 0.924 | –
